Test results as given in PMC8766756, “Insights on Cancer Cell Inhibition, Subcellular Activities, and Kinase Profile of Phenylacetamides Pending 1H-Imidazol-5-One Variants” (Frontiers in Pharmacology, 2022).
Values joined by “and” are separate entries in the source; they are usually repeats but may differ in a detail not shown here. Identical values can stand only once.

Columns and labels:
Test in all cases: PamChip tyrosine kinase microarray
Type in all cases: biochemical
Details in all cases: 0.1 µM, HL60 lysate
CCK4/PTK7 (Q13308) = molecular target: T1, CCK4/PTK7 (Q13308) (Homo sapiens, UniProt Q13308)
T1 construct: purchased PamGene (PamChip PTK array, Upstream Kinase Analysis)
T1 sequence (Q13308 31-1070): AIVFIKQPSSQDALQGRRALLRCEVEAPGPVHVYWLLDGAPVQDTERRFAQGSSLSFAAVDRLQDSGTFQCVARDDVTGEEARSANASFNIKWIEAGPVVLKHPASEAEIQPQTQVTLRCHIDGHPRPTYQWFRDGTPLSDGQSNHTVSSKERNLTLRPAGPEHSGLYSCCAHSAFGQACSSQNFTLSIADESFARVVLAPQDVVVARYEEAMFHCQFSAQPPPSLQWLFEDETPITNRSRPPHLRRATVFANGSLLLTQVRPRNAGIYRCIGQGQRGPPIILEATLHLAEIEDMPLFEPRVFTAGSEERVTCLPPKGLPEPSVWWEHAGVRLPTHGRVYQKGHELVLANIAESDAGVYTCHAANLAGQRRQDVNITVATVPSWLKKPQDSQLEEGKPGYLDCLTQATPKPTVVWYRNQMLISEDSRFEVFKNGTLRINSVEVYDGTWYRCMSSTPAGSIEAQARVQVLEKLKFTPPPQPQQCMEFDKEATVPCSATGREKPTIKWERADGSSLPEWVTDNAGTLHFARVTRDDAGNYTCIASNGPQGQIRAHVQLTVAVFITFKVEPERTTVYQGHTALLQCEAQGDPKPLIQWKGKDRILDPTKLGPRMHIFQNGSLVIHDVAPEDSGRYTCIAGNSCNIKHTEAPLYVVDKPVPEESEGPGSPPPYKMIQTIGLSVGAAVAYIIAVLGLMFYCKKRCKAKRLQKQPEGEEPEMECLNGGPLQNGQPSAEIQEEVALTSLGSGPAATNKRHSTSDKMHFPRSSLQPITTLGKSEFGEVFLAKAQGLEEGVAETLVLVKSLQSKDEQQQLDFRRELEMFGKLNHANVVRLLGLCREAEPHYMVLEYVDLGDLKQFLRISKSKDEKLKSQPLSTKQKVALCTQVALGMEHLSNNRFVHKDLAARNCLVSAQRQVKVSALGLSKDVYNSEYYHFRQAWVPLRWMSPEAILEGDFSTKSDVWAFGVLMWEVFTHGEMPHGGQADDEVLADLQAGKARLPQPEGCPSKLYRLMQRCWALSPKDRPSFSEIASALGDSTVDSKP
Outline: (§1)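 HL60 (AML) cell lysate was spiked with compound at 0.001, 0.01, 0.1, 1, 10 and 50 µM, or 2% v/v DMSO as control, then profiled in technical replicates on a tyrosine kinase peptide array of 196 phosphosites. Kinase activity was inferred from peptide-set changes using an upstream kinase tool.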

TXK (P42681) = molecular target: T2, TXK (P42681) (Homo sapiens, UniProt P42681)
T2 construct: purchased PamGene (PamChip PTK array, Upstream Kinase Analysis)
T2 sequence (P42681 1-527): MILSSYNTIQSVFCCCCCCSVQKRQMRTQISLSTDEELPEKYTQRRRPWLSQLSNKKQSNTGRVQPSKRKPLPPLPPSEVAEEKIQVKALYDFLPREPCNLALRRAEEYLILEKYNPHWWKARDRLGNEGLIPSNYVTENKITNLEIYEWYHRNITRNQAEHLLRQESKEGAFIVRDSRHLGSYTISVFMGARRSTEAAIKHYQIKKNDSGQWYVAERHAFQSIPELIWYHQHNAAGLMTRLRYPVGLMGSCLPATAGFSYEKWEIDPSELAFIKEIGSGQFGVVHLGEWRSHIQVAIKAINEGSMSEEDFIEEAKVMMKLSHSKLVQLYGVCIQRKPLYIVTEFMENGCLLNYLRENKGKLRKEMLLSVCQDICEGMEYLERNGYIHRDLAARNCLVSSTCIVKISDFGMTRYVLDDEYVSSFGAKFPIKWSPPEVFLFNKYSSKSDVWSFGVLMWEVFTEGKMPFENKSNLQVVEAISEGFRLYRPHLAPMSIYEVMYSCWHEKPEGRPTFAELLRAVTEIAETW
Outline: as §1

PDGFR[alpha] (P16234) = molecular target: T3, PDGFR[alpha] (P16234) (Homo sapiens, UniProt P16234)
T3 construct: purchased PamGene (PamChip PTK array, Upstream Kinase Analysis)
T3 sequence (P16234 24-1089): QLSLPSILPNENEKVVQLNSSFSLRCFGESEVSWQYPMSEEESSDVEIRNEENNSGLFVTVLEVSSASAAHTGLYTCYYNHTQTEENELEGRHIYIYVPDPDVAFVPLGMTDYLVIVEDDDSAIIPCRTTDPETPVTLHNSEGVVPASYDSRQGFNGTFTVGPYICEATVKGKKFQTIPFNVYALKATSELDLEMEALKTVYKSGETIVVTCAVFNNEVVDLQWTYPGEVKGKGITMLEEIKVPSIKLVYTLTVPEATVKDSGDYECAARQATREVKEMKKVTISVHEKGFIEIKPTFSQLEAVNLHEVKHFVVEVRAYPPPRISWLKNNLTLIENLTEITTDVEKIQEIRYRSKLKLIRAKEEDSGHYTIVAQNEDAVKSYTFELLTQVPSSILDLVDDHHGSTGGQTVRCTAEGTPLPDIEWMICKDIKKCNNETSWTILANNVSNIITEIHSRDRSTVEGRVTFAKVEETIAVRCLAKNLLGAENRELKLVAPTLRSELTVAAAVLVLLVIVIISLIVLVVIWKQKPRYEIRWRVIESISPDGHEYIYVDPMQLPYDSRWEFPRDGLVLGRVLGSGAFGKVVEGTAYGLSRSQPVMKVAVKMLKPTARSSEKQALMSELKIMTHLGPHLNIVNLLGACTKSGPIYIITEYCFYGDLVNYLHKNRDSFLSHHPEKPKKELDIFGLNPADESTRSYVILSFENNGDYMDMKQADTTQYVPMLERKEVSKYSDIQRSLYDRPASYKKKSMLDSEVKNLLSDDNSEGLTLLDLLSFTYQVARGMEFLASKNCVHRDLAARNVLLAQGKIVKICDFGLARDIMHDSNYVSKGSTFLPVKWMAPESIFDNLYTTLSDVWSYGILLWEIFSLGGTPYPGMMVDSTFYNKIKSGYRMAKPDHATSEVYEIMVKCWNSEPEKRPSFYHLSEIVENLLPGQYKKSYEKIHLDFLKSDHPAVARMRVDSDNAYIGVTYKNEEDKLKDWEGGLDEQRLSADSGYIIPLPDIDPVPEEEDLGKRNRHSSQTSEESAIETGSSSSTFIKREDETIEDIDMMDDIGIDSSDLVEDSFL
Outline: as §1

JAK2 (O60674) = molecular target: T4, JAK2 (O60674) (Homo sapiens, UniProt O60674)
T4 construct: purchased PamGene (PamChip PTK array, Upstream Kinase Analysis)
T4 sequence (O60674 whole entry): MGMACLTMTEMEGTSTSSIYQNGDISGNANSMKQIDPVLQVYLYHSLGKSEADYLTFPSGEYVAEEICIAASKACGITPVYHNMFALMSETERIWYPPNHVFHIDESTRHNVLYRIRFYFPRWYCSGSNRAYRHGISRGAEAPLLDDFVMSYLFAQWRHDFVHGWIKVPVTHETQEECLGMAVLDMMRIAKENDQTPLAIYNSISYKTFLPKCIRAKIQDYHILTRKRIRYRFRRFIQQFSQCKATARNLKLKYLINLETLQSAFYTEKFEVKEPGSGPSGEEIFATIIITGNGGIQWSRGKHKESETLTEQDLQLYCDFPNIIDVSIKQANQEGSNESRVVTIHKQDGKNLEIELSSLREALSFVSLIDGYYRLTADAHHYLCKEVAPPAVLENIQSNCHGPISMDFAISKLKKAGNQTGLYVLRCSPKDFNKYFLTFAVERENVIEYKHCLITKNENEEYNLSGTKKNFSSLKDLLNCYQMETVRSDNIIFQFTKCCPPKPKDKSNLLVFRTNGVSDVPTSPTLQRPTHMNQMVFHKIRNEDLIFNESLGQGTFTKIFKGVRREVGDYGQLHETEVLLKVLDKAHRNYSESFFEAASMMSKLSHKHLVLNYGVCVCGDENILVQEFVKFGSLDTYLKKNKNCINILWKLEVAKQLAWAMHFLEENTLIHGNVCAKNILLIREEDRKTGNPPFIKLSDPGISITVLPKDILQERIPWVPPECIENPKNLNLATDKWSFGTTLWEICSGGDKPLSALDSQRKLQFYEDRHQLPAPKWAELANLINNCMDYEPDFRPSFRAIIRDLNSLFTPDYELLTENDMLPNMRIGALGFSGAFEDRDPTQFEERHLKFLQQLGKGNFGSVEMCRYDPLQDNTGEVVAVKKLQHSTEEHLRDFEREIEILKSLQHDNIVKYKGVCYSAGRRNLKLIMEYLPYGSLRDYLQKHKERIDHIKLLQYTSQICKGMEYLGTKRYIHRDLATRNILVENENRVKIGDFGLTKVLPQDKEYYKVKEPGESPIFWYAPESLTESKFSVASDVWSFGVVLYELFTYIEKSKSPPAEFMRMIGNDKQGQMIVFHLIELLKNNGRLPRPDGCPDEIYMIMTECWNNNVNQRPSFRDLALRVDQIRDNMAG
Outline: as §1

SMILES: COc1ccc(/C=C2\N=C(C)N(c3ccc(CC(=O)NCc4ccccc4)cc3)C2=O)cc1 [Compound 4c, (Z)-N-Benzyl-2-(4-(4-(4-methoxybenzylidene)-2-methyl-5-oxo-4,5-dihydro-1H-imidazol-1-yl)phenyl)acetamide]
- Mean Significance Score (CCK4/PTK7 (Q13308)): 1.989
- Mean Specificity Score (CCK4/PTK7 (Q13308)): 0.5841
- Mean Final score (Kinase score) (CCK4/PTK7 (Q13308); listed as KIM-161): 2.60 and 2.5986
- Mean Significance Score (TXK (P42681)): 2.048
- Mean Specificity Score (TXK (P42681)): 0.6377
- Mean Final score (Kinase score) (TXK (P42681); listed as KIM-161): 2.68
- Mean Final score (Kinase score) (PDGFR[alpha] (P16234)): 1.95
- Mean Kinase Statistic (PDGFR[alpha] (P16234)): -1.208
- Mean Significance Score (PDGFR[alpha] (P16234)): 1.701
- Mean Specificity Score (PDGFR[alpha] (P16234)): 0.3388
- Mean Significance Score (JAK2 (O60674)): 2.048
- Mean Specificity Score (JAK2 (O60674)): 1.216
- Mean Final score (Kinase score) (JAK2 (O60674); listed as KIM-161): 3.19 and 3.191
- Mean Kinase Statistic (JAK2 (O60674); listed as KIM-161): −1.43
